Experimental data taken from ChEMBL document CHEMBL1201862, “PubChem BioAssay data set” (2004).
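Cells were grown in 96-well plates and exposed to each compound for 48 hours at five concentrations; endpoints were interpolated linearly between bracketing concentrations, or set to the highest concentration if not reached. At the GI50, growth is halved.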 The source made the active and inactive calls. Cut-off read from the data, not from the text of the source: active = GI50 up to about 1.1 µM and inactive = higher.

What was measured:
Experiment in all cases: growth of human tumour cells (NCI), 48 h
HOP-62 = system: HOP-62
OVCAR-5 = system: OVCAR-5
SK-MEL-28 = system: SK-MEL-28
SN12C = system: SN12C
NCI-H226 = system: NCI-H226
UACC-257 = system: UACC-257
HL-60 = system: HL-60
786-0 = system: 786-0
OVCAR-4 = system: OVCAR-4
CCRF-CEM = system: CCRF-CEM
A549 = system: A549
SF-295 = system: SF-295
SNB-19 = system: SNB-19
UACC-62 = system: UACC-62
SF-539 = system: SF-539
Malme-3M = system: Malme-3M
SK-MEL-5 = system: SK-MEL-5
COLO 205 = system: COLO 205
MDA-MB-231 = system: MDA-MB-231
LOX IMVI = system: LOX IMVI

Row | SMILES | GI50 (HOP-62) | GI50 (OVCAR-5) | GI50 (SK-MEL-28) | GI50 (SN12C) | GI50 (NCI-H226) | GI50 (UACC-257) | GI50 (HL-60) | GI50 (786-0) | GI50 (OVCAR-4) | GI50 (CCRF-CEM) | GI50 (A549) | GI50 (SF-295) | GI50 (SNB-19) | GI50 (UACC-62) | GI50 (SF-539) | GI50 (Malme-3M) | GI50 (SK-MEL-5) | GI50 (COLO 205) | GI50 (MDA-MB-231) | GI50 (LOX IMVI)
1 | CSc1nc(-c2ccccc2)[nH]c(=O)n1 | > 100 µM (inactive) | > 100 µM (inactive) | > 100 µM (inactive) | > 100 µM (inactive) | > 100 µM (inactive) | > 100 µM (inactive) | 54.5 µM (inactive) | > 100 µM (inactive) | > 100 µM (inactive) | > 100 µM (inactive) | > 100 µM (inactive) | > 100 µM (inactive) | > 100 µM (inactive) | > 100 µM (inactive) | > 100 µM (inactive) | 59 µM (inactive) | > 100 µM (inactive) | > 100 µM (inactive) | > 100 µM (inactive) | –
2 | CCOC(=O)C(C)NC(=O)C(C)NC(=O)C(C)NC(=O)C(C)NC(=O)C(C)NC(=O)OCc1ccccc1 (centres undefined) | > 100 µM (inactive) | > 100 µM (inactive) | > 100 µM (inactive) | > 100 µM (inactive) | > 100 µM (inactive) | > 100 µM (inactive) | > 100 µM (inactive) | > 100 µM (inactive) | > 100 µM (inactive) | > 100 µM (inactive) | > 100 µM (inactive) | > 100 µM (inactive) | > 100 µM (inactive) | > 100 µM (inactive) | > 100 µM (inactive) | > 100 µM (inactive) | > 100 µM (inactive) | > 100 µM (inactive) | > 100 µM (inactive) | > 100 µM (inactive)
3 | C=CCCCC1(C)CCCCNC1=O (centres undefined) | > 10 µM (inactive) | > 10 µM (inactive) | > 10 µM (inactive) | > 10 µM (inactive) | > 10 µM (inactive) | > 10 µM (inactive) | > 10 µM (inactive) | > 10 µM (inactive) | > 10 µM (inactive) | > 10 µM (inactive) | > 10 µM (inactive) | > 10 µM (inactive) | > 10 µM (inactive) | > 10 µM (inactive) | > 10 µM (inactive) | > 10 µM (inactive) | > 10 µM (inactive) | > 10 µM (inactive) | > 10 µM (inactive) | > 10 µM (inactive)
4 | CC1(C)S[C@@H]2[C@H](N3C(=O)c4ccccc4C3=O)CN2[C@H]1NC(=O)N[C@@H]1N2C[C@@H](N3C(=O)c4ccccc4C3=O)[C@H]2SC1(C)C | 48.8 µM (inactive) | > 100 µM (inactive) | > 100 µM (inactive) | > 100 µM (inactive) | > 100 µM (inactive) | – | > 100 µM (inactive) | 54.5 µM (inactive) | > 100 µM (inactive) | > 100 µM (inactive) | 73.3 µM (inactive) | 75.7 µM (inactive) | 43.2 µM (inactive) | > 100 µM (inactive) | 55.1 µM (inactive) | > 100 µM (inactive) | > 100 µM (inactive) | > 100 µM (inactive) | 52.7 µM (inactive) | > 100 µM (inactive)
5 | CCN(CC)C(=S)SNCc1ccc(S(N)(=O)=O)cc1 | 15.4 µM (inactive) | 14 µM (inactive) | 18.2 µM (inactive) | 15.5 µM (inactive) | > 38.9 µM (inactive) | 17.1 µM (inactive) | 4.54 µM (inactive) | 14.3 µM (inactive) | 18.7 µM (inactive) | – | 12.3 µM (inactive) | 9.06 µM (inactive) | 16 µM (inactive) | 24.9 µM (inactive) | 14.5 µM (inactive) | 15.3 µM (inactive) | 13.5 µM (inactive) | 14.6 µM (inactive) | 18.1 µM (inactive) | 13.5 µM (inactive)
6 | O=c1oc2ncccc2n1Cc1ccc([N+](=O)[O-])cc1 | > 100 µM (inactive) | > 100 µM (inactive) | > 100 µM (inactive) | > 100 µM (inactive) | > 100 µM (inactive) | > 100 µM (inactive) | > 100 µM (inactive) | > 100 µM (inactive) | > 100 µM (inactive) | > 100 µM (inactive) | > 100 µM (inactive) | > 100 µM (inactive) | – | > 100 µM (inactive) | > 100 µM (inactive) | > 100 µM (inactive) | > 100 µM (inactive) | > 100 µM (inactive) | > 100 µM (inactive) | > 100 µM (inactive)
7 | NC(=O)C[C@H](NC(=O)C1(NC(=O)[C@H](Cc2ccc(CP(=O)(O)O)cc2)NC(=O)C(=O)O)CCCCC1)C(=O)NCCCc1cccc2ccccc12 | > 10 µM (inactive) | > 10 µM (inactive) | > 10 µM (inactive) | > 10 µM (inactive) | 7.45 µM (inactive) | > 10 µM (inactive) | > 10 µM (inactive) | > 10 µM (inactive) | > 10 µM (inactive) | 8.28 µM (inactive) | > 10 µM (inactive) | > 10 µM (inactive) | > 10 µM (inactive) | > 10 µM (inactive) | > 10 µM (inactive) | > 10 µM (inactive) | > 10 µM (inactive) | > 10 µM (inactive) | > 10 µM (inactive) | > 10 µM (inactive)
8 | O=C1NC(N2CCCC(CO)C2)=N/C1=C\c1ccccc1 (centres undefined) | > 100 µM (inactive) | > 100 µM (inactive) | > 100 µM (inactive) | > 100 µM (inactive) | > 100 µM (inactive) | > 100 µM (inactive) | > 100 µM (inactive) | > 100 µM (inactive) | > 100 µM (inactive) | > 100 µM (inactive) | > 100 µM (inactive) | > 100 µM (inactive) | > 100 µM (inactive) | > 100 µM (inactive) | > 100 µM (inactive) | > 100 µM (inactive) | > 100 µM (inactive) | > 100 µM (inactive) | > 100 µM (inactive) | > 100 µM (inactive)
9 | CC1=C(C)SC(=C2Sc3c(n(C)c(=O)n(C)c3=O)S2)S1 | 18.7 µM (inactive) | > 100 µM (inactive) | > 100 µM (inactive) | 35 µM (inactive) | 20 µM (inactive) | > 100 µM (inactive) | > 100 µM (inactive) | 17.4 µM (inactive) | 21.4 µM (inactive) | > 100 µM (inactive) | 42.5 µM (inactive) | 28.7 µM (inactive) | 32.3 µM (inactive) | 44.7 µM (inactive) | 13.2 µM (inactive) | > 100 µM (inactive) | 33.7 µM (inactive) | 89.9 µM (inactive) | 22.7 µM (inactive) | 48.5 µM (inactive)
10 | O=C(NCCNCCO)N/N=C/c1ccc([N+](=O)[O-])cc1 | > 100 µM (inactive) | > 100 µM (inactive) | > 100 µM (inactive) | > 100 µM (inactive) | > 100 µM (inactive) | > 100 µM (inactive) | > 100 µM (inactive) | > 100 µM (inactive) | – | > 100 µM (inactive) | > 100 µM (inactive) | > 100 µM (inactive) | > 100 µM (inactive) | > 100 µM (inactive) | > 100 µM (inactive) | 43.8 µM (inactive) | > 100 µM (inactive) | > 100 µM (inactive) | > 100 µM (inactive) | –
11 | CC(C)C1OC(N)=C(C#N)C1(C#N)C#N (centres undefined) | 44.4 µM (inactive) | > 100 µM (inactive) | – | 69.7 µM (inactive) | > 100 µM (inactive) | 17.1 µM (inactive) | 5.58 µM (inactive) | 29.4 µM (inactive) | – | 10.9 µM (inactive) | > 100 µM (inactive) | > 100 µM (inactive) | 46.8 µM (inactive) | 32.5 µM (inactive) | 44.7 µM (inactive) | > 100 µM (inactive) | 33.3 µM (inactive) | 18.2 µM (inactive) | > 100 µM (inactive) | 28.1 µM (inactive)
12 | CCSC12OC3(CCCCCN3C1=O)C1C(=O)N(c3ccccc3)C(=O)C12 (centres undefined) | – | > 100 µM (inactive) | > 100 µM (inactive) | > 100 µM (inactive) | > 100 µM (inactive) | > 100 µM (inactive) | > 100 µM (inactive) | > 100 µM (inactive) | > 100 µM (inactive) | > 100 µM (inactive) | > 100 µM (inactive) | > 100 µM (inactive) | > 100 µM (inactive) | > 100 µM (inactive) | > 100 µM (inactive) | > 100 µM (inactive) | > 100 µM (inactive) | > 100 µM (inactive) | > 100 µM (inactive) | > 100 µM (inactive)
13 | CC1CC[C@@]2(OC1)O[C@H]1[C@H](O)[C@H]3[C@@H]4CC[C@H]5C[C@@H](OC6OC(CO)C(OC7OC(CO)C(O)C(OC8OCC(O)C(O)C8O)C7OC7OC(CO)C(O)C(O)C7OC7OC(CO)C(O)C(O)C7O)C(O)C6O)[C@H](O)C[C@]5(C)[C@H]4CC[C@]3(C)[C@H]1[C@@H]2C (some centres undefined) | > 10 µM (inactive) | > 10 µM (inactive) | > 10 µM (inactive) | 3.89 µM (inactive) | > 10 µM (inactive) | > 10 µM (inactive) | 1.54 µM (inactive) | 3.12 µM (inactive) | 7.08 µM (inactive) | 0.942 µM (active) | 3.47 µM (inactive) | – | 9.35 µM (inactive) | > 10 µM (inactive) | 9.46 µM (inactive) | > 10 µM (inactive) | > 10 µM (inactive) | > 10 µM (inactive) | 2.61 µM (inactive) | > 10 µM (inactive)
14 | CC(=O)OC(=C(C#N)C#N)c1nccnc1C(C)=O | – | > 20 µM (inactive) | 9.77 µM (inactive) | > 20 µM (inactive) | 6.01 µM (inactive) | > 20 µM (inactive) | 7.01 µM (inactive) | > 20 µM (inactive) | > 20 µM (inactive) | 11.2 µM (inactive) | 11.9 µM (inactive) | 10.9 µM (inactive) | > 20 µM (inactive) | > 20 µM (inactive) | 7.24 µM (inactive) | 9.29 µM (inactive) | 6.32 µM (inactive) | 4.55 µM (inactive) | > 20 µM (inactive) | > 20 µM (inactive)
